Experimental data: publication PMC7271629 (ACS chemical biology, 2020)

Assays:
[1] = system: c-Myc expression in K562 chronic myelogenous leukemia cells; assay: c-Myc expression in K562 cells; format: cell-based, human
[2] = system: BD1 and BD2 within a BET protein; details: cited from earlier work

Cc1sc2c(c1C)C(c1ccc(Cl)cc1)=N[C@@H](CC(=O)OC(C)(C)C)c1nnc(C)n1-2 [JQ1]
effect on c-Myc expression [1]: attenuated c-Myc expression

Cc1sc2c(c1C)C(c1ccc(Cl)cc1)=N[C@@H](CC(=O)NCCOCCOCCOCCOCCOCCOCCOCCNC(=O)C[C@@H]1N=C(c3ccc(Cl)cc3)c3c(sc(C)c3C)-n3c(C)nnc31)c1nnc(C)n1-2 [MT1]
affinity of bivalent engagement of BD1 and BD2 [2]: subnanomolar
